# Laboratory results from patent US20260262643A1, “HERBICIDAL BENZOXAZINES” (FMC CORPORATION, priority 2022, published 2026).
# Tests used:
# [1] = test system: blackgrass; test: Test C preemergence; assay type: in vivo, Alopecurus myosuroides; details: preemergence, 0 to 100 scale (0 no effect, 100 complete control)
# Procedure, shortened: (§1)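 Soil-applied (pre) and foliar (post, 1–2 leaf, 2–10 cm) sprays; surfactant-containing non-phytotoxic solvent vehicle; loam/sand substrate. Readout: visual % control at 10 d, greenhouse, versus untreated.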
# [2] = test system: wheat; test: Test C preemergence; assay type: in vivo, Triticum aestivum; details: preemergence, 0 to 100 scale (0 no effect, 100 complete control)
# Procedure, shortened: as §1
# [3] = test system: wheat; test: Test C postemergence; assay type: in vivo, Triticum aestivum; details: 10 days, 0 to 100 scale (0 no effect, 100 complete control)
# Procedure, shortened: as §1
# [4] = test system: sedge, umbrella; test: Test D flooded paddy test; assay type: in vivo, Cyperus difformis; details: 250 g ai/ha, applied to paddy water, visual rating after 13 to 14 days, scale 0 to 100 (0 no effect, 100 complete control)
# Procedure, shortened: (§2)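 Plants at the 2-leaf stage were grown in pots flooded to 3 cm, and compound was applied directly into the paddy water, with depth kept throughout. After 13–14 days in a greenhouse, injury was rated visually against untreated controls on a 0–100 scale (100 = complete control); a dash means not tested.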
# [5] = test system: corn; test: Test C preemergence; assay type: in vivo, Zea mays; details: preemergence, 0 to 100 scale (0 no effect, 100 complete control)
# Procedure, shortened: as §1
# [6] = test system: kochia; test: Test C postemergence; assay type: in vivo, Bassia scoparia; details: 10 days, 0 to 100 scale (0 no effect, 100 complete control)
# Procedure, shortened: as §1
# [7] = test system: galium; test: Test C postemergence; assay type: in vivo, Galium aparine; details: 10 days, 0 to 100 scale (0 no effect, 100 complete control)
# Procedure, shortened: as §1
# [8] = test system: pigweed, palmer; test: Test C postemergence; assay type: in vivo, Amaranthus palmeri; details: 10 days, 0 to 100 scale (0 no effect, 100 complete control)
# Procedure, shortened: as §1
# [9] = test system: soybean; test: Test C preemergence; assay type: in vivo, Glycine max; details: preemergence, 0 to 100 scale (0 no effect, 100 complete control)
# Procedure, shortened: as §1
# [10] = test system: blackgrass; test: Test C postemergence; assay type: in vivo, Alopecurus myosuroides; details: 10 days, 0 to 100 scale (0 no effect, 100 complete control)
# Procedure, shortened: as §1
# [11] = test system: oat, wild; test: Test C postemergence; assay type: in vivo, Avena fatua; details: 10 days, 0 to 100 scale (0 no effect, 100 complete control)
# Procedure, shortened: as §1
# [12] = test system: barnyardgrass; test: Test C preemergence; assay type: in vivo, Echinochloa crusgalli; details: preemergence, 0 to 100 scale (0 no effect, 100 complete control)
# Procedure, shortened: as §1
# [13] = test system: barnyardgrass; test: Test D flooded paddy test; assay type: in vivo, Echinochloa crus-galli; details: 250 g ai/ha, applied to paddy water, visual rating after 13 to 14 days, scale 0 to 100 (0 no effect, 100 complete control)
# Procedure, shortened: as §2
# [14] = test system: corn; test: Test C postemergence; assay type: in vivo, Zea mays; details: 10 days, 0 to 100 scale (0 no effect, 100 complete control)
# Procedure, shortened: as §1
# [15] = test system: pigweed, palmer; test: Test C preemergence; assay type: in vivo, Amaranthus palmeri; details: preemergence, 0 to 100 scale (0 no effect, 100 complete control)
# Procedure, shortened: as §1
# [16] = test system: ducksalad; test: Test D flooded paddy test; assay type: in vivo, Heteranthera limosa; details: 250 g ai/ha, applied to paddy water, visual rating after 13 to 14 days, scale 0 to 100 (0 no effect, 100 complete control)
# Procedure, shortened: as §2
# [17] = test system: horseweed; test: Test C postemergence; assay type: in vivo, Erigeron canadensis; details: 10 days, 0 to 100 scale (0 no effect, 100 complete control)
# Procedure, shortened: as §1
# [18] = test system: green foxtail; test: Test C postemergence; assay type: in vivo, Setaria viridis; details: 10 days, 0 to 100 scale (0 no effect, 100 complete control)
# Procedure, shortened: as §1
# [19] = test system: ragweed; test: Test C postemergence; assay type: in vivo, Ambrosia artemisiifolia; details: 10 days, 0 to 100 scale (0 no effect, 100 complete control)
# Procedure, shortened: as §1
# [20] = test system: kochia; test: Test C preemergence; assay type: in vivo, Bassia scoparia; details: preemergence, 0 to 100 scale (0 no effect, 100 complete control)
# Procedure, shortened: as §1
# [21] = test system: soybean; test: Test C postemergence; assay type: in vivo, Glycine max; details: 10 days, 0 to 100 scale (0 no effect, 100 complete control)
# Procedure, shortened: as §1
# [22] = test system: barnyardgrass; test: Test C postemergence; assay type: in vivo, Echinochloa crusgalli; details: 10 days, 0 to 100 scale (0 no effect, 100 complete control)
# Procedure, shortened: as §1
# [23] = test system: rice; test: Test D flooded paddy test; assay type: in vivo, Oryza sativa; details: 250 g ai/ha, applied to paddy water, visual rating after 13 to 14 days, scale 0 to 100 (0 no effect, 100 complete control)
# Procedure, shortened: as §2
# [24] = test system: oat, wild; test: Test C preemergence; assay type: in vivo, Avena fatua; details: preemergence, 0 to 100 scale (0 no effect, 100 complete control)
# Procedure, shortened: as §1
# [25] = test system: ryegrass, Italian; test: Test C postemergence; assay type: in vivo, Lolium multiflorum; details: 10 days, 0 to 100 scale (0 no effect, 100 complete control)
# Procedure, shortened: as §1
# [26] = test system: ryegrass, Italian; test: Test C preemergence; assay type: in vivo, Lolium multiflorum; details: preemergence, 0 to 100 scale (0 no effect, 100 complete control)
# Procedure, shortened: as §1
# [27] = test system: green foxtail; test: Test C preemergence; assay type: in vivo, Setaria viridis; details: preemergence, 0 to 100 scale (0 no effect, 100 complete control)
# Procedure, shortened: as §1
smiles,measurement,setting,value
"Cc1cccc2c1OC(C(F)(F)F)CN2C(=O)c1cccc(-n2cnc(C(C)C)n2)c1 (single isomer, unassigned) [Compound 302]",Blackgrass plant response rating,[1]; 500 g ai/ha,60
same,Blackgrass plant response rating,"[1]; Test C, 125 g ai/ha",30
same,Wheat plant response rating,[2]; 500 g ai/ha,40
same,Wheat plant response rating,"[2]; Test C, 125 g ai/ha",20
same,"Plant response rating, Wheat","[3]; 500 g ai/ha, postemergence",10
same,"Plant response rating, Wheat","[3]; Postemergence, 125 g ai/ha",10
same,"Plant response rating, Sedge, Umbrella (Flood)",[4],0
same,Corn plant response rating,[5]; 500 g ai/ha,0
same,"Plant response rating, Kochia","[6]; 500 g ai/ha, postemergence",70
same,"Plant response rating, Kochia","[6]; Postemergence, 125 g ai/ha",20
same,"Plant response rating, Galium","[7]; 500 g ai/ha, postemergence",90
same,"Plant response rating, Pigweed, Palmer","[8]; 500 g ai/ha, postemergence",20
same,"Plant response rating, Pigweed, Palmer","[8]; Postemergence, 125 g ai/ha",10
same,Soybean plant response rating,[9]; 500 g ai/ha,20
same,Soybean plant response rating,"[9]; Test C, 125 g ai/ha",10
same,"Plant response rating, Blackgrass","[10]; 500 g ai/ha, postemergence",30
same,"Plant response rating, Blackgrass","[10]; Postemergence, 125 g ai/ha",0
same,"Plant response rating, Oat, Wild","[11]; 500 g ai/ha, postemergence",10
same,"Plant response rating, Oat, Wild","[11]; Postemergence, 125 g ai/ha",0
same,Barnyardgrass plant response rating,[12]; 500 g ai/ha,50
same,Barnyardgrass plant response rating,"[12]; Test C, 125 g ai/ha",0
same,"Plant response rating, Barnyardgrass (Flood)",[13],0
same,"Plant response rating, Corn","[14]; 500 g ai/ha, postemergence",10
same,"Plant response rating, Corn","[14]; Postemergence, 125 g ai/ha",10
same,"Pigweed, Palmer plant response rating",[15]; 500 g ai/ha,80
same,"Pigweed, Palmer plant response rating","[15]; Test C, 125 g ai/ha",70
same,"Plant response rating, Ducksalad (Flood)",[16],0
same,"Plant response rating, Horseweed","[17]; 500 g ai/ha, postemergence",50
same,"Plant response rating, Horseweed","[17]; Postemergence, 125 g ai/ha",60
same,"Plant response rating, Foxtail, Green","[18]; 500 g ai/ha, postemergence",10
same,"Plant response rating, Foxtail, Green","[18]; Postemergence, 125 g ai/ha",0
same,"Plant response rating, Ragweed","[19]; 500 g ai/ha, postemergence",20
same,"Plant response rating, Ragweed","[19]; Postemergence, 125 g ai/ha",20
same,Kochia plant response rating,[20]; 500 g ai/ha,80
same,Kochia plant response rating,"[20]; Test C, 125 g ai/ha",0
same,"Plant response rating, Soybean","[21]; 500 g ai/ha, postemergence",90
same,"Plant response rating, Soybean","[21]; Postemergence, 125 g ai/ha",80
same,"Plant response rating, Barnyardgrass","[22]; 500 g ai/ha, postemergence",10
same,"Plant response rating, Barnyardgrass","[22]; Postemergence, 125 g ai/ha",10
same,"Plant response rating, Rice (Flood)",[23],0
same,"Oat, Wild plant response rating",[24]; 500 g ai/ha,80
same,"Oat, Wild plant response rating","[24]; Test C, 125 g ai/ha",0
same,"Plant response rating, Ryegrass, Italian","[25]; 500 g ai/ha, postemergence",50
same,"Plant response rating, Ryegrass, Italian","[25]; Postemergence, 125 g ai/ha",0
same,"Ryegrass, Italian plant response rating",[26]; 500 g ai/ha,100
same,"Ryegrass, Italian plant response rating","[26]; Test C, 125 g ai/ha",80
same,"Foxtail, Green plant response rating",[27]; 500 g ai/ha,80
same,"Foxtail, Green plant response rating","[27]; Test C, 125 g ai/ha",20
CCOc1ncn(-c2cccc(C(=O)N3C[C@H](C)Oc4c(Cl)cccc43)c2)n1 [Compound 311],Blackgrass plant response rating,[1]; 500 g ai/ha,80
same,Blackgrass plant response rating,"[1]; Test C, 125 g ai/ha",10
same,Wheat plant response rating,[2]; 500 g ai/ha,20
same,Wheat plant response rating,"[2]; Test C, 125 g ai/ha",0
same,"Plant response rating, Wheat","[3]; 500 g ai/ha, postemergence",10
same,"Plant response rating, Wheat","[3]; Postemergence, 125 g ai/ha",10
same,"Plant response rating, Sedge, Umbrella (Flood)",[4],0
same,Corn plant response rating,[5]; 500 g ai/ha,0
same,Corn plant response rating,"[5]; Test C, 125 g ai/ha",0
same,"Plant response rating, Kochia","[6]; 500 g ai/ha, postemergence",70
same,"Plant response rating, Kochia","[6]; Postemergence, 125 g ai/ha",30
same,"Plant response rating, Galium","[7]; 500 g ai/ha, postemergence",90
same,"Plant response rating, Galium","[7]; Postemergence, 125 g ai/ha",90
same,"Plant response rating, Pigweed, Palmer","[8]; 500 g ai/ha, postemergence",60
same,"Plant response rating, Pigweed, Palmer","[8]; Postemergence, 125 g ai/ha",20
same,Soybean plant response rating,[9]; 500 g ai/ha,10
same,Soybean plant response rating,"[9]; Test C, 125 g ai/ha",0
same,"Plant response rating, Blackgrass","[10]; 500 g ai/ha, postemergence",90
same,"Plant response rating, Blackgrass","[10]; Postemergence, 125 g ai/ha",0
same,"Plant response rating, Oat, Wild","[11]; 500 g ai/ha, postemergence",10
same,"Plant response rating, Oat, Wild","[11]; Postemergence, 125 g ai/ha",0
same,Barnyardgrass plant response rating,[12]; 500 g ai/ha,60
same,Barnyardgrass plant response rating,"[12]; Test C, 125 g ai/ha",0
same,"Plant response rating, Barnyardgrass (Flood)",[13],0
same,"Plant response rating, Corn","[14]; 500 g ai/ha, postemergence",40
same,"Plant response rating, Corn","[14]; Postemergence, 125 g ai/ha",10
same,"Pigweed, Palmer plant response rating",[15]; 500 g ai/ha,100
same,"Pigweed, Palmer plant response rating","[15]; Test C, 125 g ai/ha",50
same,"Plant response rating, Ducksalad (Flood)",[16],0
same,"Plant response rating, Horseweed","[17]; 500 g ai/ha, postemergence",50
same,"Plant response rating, Horseweed","[17]; Postemergence, 125 g ai/ha",50
same,"Plant response rating, Foxtail, Green","[18]; 500 g ai/ha, postemergence",40
same,"Plant response rating, Foxtail, Green","[18]; Postemergence, 125 g ai/ha",30
same,"Plant response rating, Ragweed","[19]; 500 g ai/ha, postemergence",40
same,"Plant response rating, Ragweed","[19]; Postemergence, 125 g ai/ha",0
same,Kochia plant response rating,[20]; 500 g ai/ha,80
same,Kochia plant response rating,"[20]; Test C, 125 g ai/ha",20
same,"Plant response rating, Soybean","[21]; 500 g ai/ha, postemergence",100
same,"Plant response rating, Soybean","[21]; Postemergence, 125 g ai/ha",70
same,"Plant response rating, Barnyardgrass","[22]; 500 g ai/ha, postemergence",40
same,"Plant response rating, Barnyardgrass","[22]; Postemergence, 125 g ai/ha",10
same,"Plant response rating, Rice (Flood)",[23],0
same,"Oat, Wild plant response rating",[24]; 500 g ai/ha,30
same,"Oat, Wild plant response rating","[24]; Test C, 125 g ai/ha",0
same,"Plant response rating, Ryegrass, Italian","[25]; 500 g ai/ha, postemergence",30
same,"Plant response rating, Ryegrass, Italian","[25]; Postemergence, 125 g ai/ha",10
same,"Ryegrass, Italian plant response rating",[26]; 500 g ai/ha,80
same,"Ryegrass, Italian plant response rating","[26]; Test C, 125 g ai/ha",30
same,"Foxtail, Green plant response rating",[27]; 500 g ai/ha,100
same,"Foxtail, Green plant response rating","[27]; Test C, 125 g ai/ha",90
